Source: patent US4837149A, “Novel saframycin A derivatives and process for producing the same” (priority 1984, dated 1989)
Converted amounts (≈) assume the structure as drawn. Read-outs that look alike come from different tables or passages of the source.

Columns and labels:
Saccharomyces cerevisiae = assay: Antimicrobial (fungi) MIC on agar plates; type: cell-based; settings: IFM No. 40025, Sabouraud's glucose (2%) agar, 48 hours
Shigella dysenteria = assay: Antibacterial spectra in vitro, MIC on agar plates; type: cell-based; settings: IFM No. 3024, nutrient agar, 37° C., 24 hours
Rhodotorula glutinus = assay: Antimicrobial (fungi) MIC on agar plates; type: cell-based; settings: IFM No. 40057, Sabouraud's glucose (2%) agar, 48 hours
Nocardia asteroides = assay: Antibacterial spectra in vitro, MIC on agar plates; type: cell-based; settings: IFM No. 0006, glucose (0.5%) agar, 37° C., 24 hours
Sarcina lutea = assay: Antibacterial spectra in vitro, MIC on agar plates; type: cell-based; settings: Micrococcus luteus; IFM No. 2066; nutrient agar; 37° C., 24 hours
mouse leukemia L 1210 = assay: Effect against mouse leukemia L 1210 in BDF1 mice (US National Cancer Research Institute procedure); type: in vivo; settings: for survival effect compared with critical level of effectiveness prescribed by the research institute: 10 micrograms/mouse/day intraperitoneally for one week; for survival effect [T/C×100]: 10 micrograms/mouse/day intraperitoneally for one week from 24 hours after transplantation
Source text: In another test, the effect of saframycins Y3 and Yd-1 against mouse leukemia L 1210 was examined by using BDF1 mice according to the procedure as established by the US National Cancer Research Institute.

Candida albicans 7N = assay: Antimicrobial (fungi) MIC on agar plates; type: cell-based; settings: IFM No. 40009, Sabouraud's glucose (2%) agar
Streptococcus faecalis = assay: Antibacterial spectra in vitro, MIC on agar plates; type: cell-based; settings: Enterococcus faecalis; IFM No. 2001; glucose (0.5%) agar; 37° C., 24 hours
[1] = system: Staphylococcus aureus Smith; assay: Antibacterial spectra in vitro, MIC on agar plates; type: cell-based; settings: IFM No. 2018, nutrient agar, 37° C., 24 hours
Escherichia coli F1 = assay: Antibacterial spectra in vitro, MIC on agar plates; type: cell-based; settings: IFM No. 3002, nutrient agar, 37° C., 24 hours
Mycobacterium sp. 607 = assay: Antibacterial spectra in vitro, MIC on agar plates; type: cell-based; settings: IFM No. 2051, glucose (0.5%) agar, 37° C., 24 hours
Protocol: (§1) With respect to the antimicrobial activities of saframycins Y3 and Yd-1, the antibacterial spectra in vitro, as expressed by their minimum inhibitory concentrations (MIC), are shown in Table 2:
(§2) Medium: A=nutrient agar, B=glucose (0.5%) agar, C=Sabouraud's glucose (2%) agar.
(§3) All MIC-values shown in Table 2 are obtained from cultures on agar plates containing varying amounts of the antibiotic tested at temperatures of 37° C. after an incubation period of 24 hours (bacteria), 48 hours (fungi except candida albicans, 37° C., 48 hours, Trichophyton mentagrophytes.

[2] = system: Streptococcus pyogenes Cook; assay: Antibacterial spectra in vitro, MIC on agar plates; type: cell-based; settings: IFM No. 2003, glucose (0.5%) agar, 37° C., 24 hours
Protocol: as §1, §2, §3

Pseudomonas aeruginosa = assay: Antibacterial spectra in vitro, MIC on agar plates; type: cell-based; settings: IFM No. 3011, nutrient agar, 37° C., 24 hours
Protocol: as §1, §2, §3

[3] = system: Corynebacterium diphtheria; assay: Antibacterial spectra in vitro, MIC on agar plates; type: cell-based; settings: IFM No. 2056, glucose (0.5%) agar, 37° C., 24 hours
Protocol: as §1, §2, §3

Staphylococcus albus = assay: Antibacterial spectra in vitro, MIC on agar plates; type: cell-based; settings: IFM No. 2013, nutrient agar, 37° C., 24 hours
Serratia marcescens = assay: Antibacterial spectra in vitro, MIC on agar plates; type: cell-based; settings: IFM No. 3029, nutrient agar, 37° C., 24 hours
Aspergillus niger = assay: Antimicrobial (fungi) MIC on agar plates; type: cell-based; settings: IFM No. 40606, Sabouraud's glucose (2%) agar, 48 hours
Penicillium expansum = assay: Antimicrobial (fungi) MIC on agar plates; type: cell-based; settings: IFM No. 40618, Sabouraud's glucose (2%) agar, 48 hours
Corynebacterium xeriosis = assay: Antibacterial spectra in vitro, MIC on agar plates; type: cell-based; settings: IFM No. 2057, glucose (0.5%) agar, 37° C., 24 hours
[4] = system: Bacillus subtilis PCI 219; assay: Antibacterial spectra in vitro, MIC on agar plates; type: cell-based; settings: PCI219, IFM No. 2060, nutrient agar, 37° C., 24 hours
[5] = system: Streptococcus pyogenes 090 R; assay: Antibacterial spectra in vitro, MIC on agar plates; type: cell-based
Bacillus cereus = assay: Antibacterial spectra in vitro, MIC on agar plates; type: cell-based; settings: IFM No. 2058, nutrient agar, 37° C., 24 hours
[6] = system: Trichophyton mentagrophytes; assay: Antimicrobial (fungi) MIC on agar plates; type: cell-based; settings: IFM No. 40134, Sabouraud's glucose (2%) agar
Mycobacterium phlei = assay: Antibacterial spectra in vitro, MIC on agar plates; type: cell-based; settings: Mycolicibacterium phlei; IFM No. 2052; glucose (0.5%) agar; 37° C., 24 hours
Brucella abortus = assay: microbe, parasite or virus in culture; type: cell-based; settings: 24 h
Aspergillus oryzae = assay: Antimicrobial (fungi) MIC on agar plates; type: cell-based; settings: IFM No. 40601, Sabouraud's glucose (2%) agar, 48 hours
[7] = system: Ehrlich ascitic tumor cells; assay: Survival of ICR mice inoculated with Ehrlich ascitic tumor cells; type: in vivo; settings: for mice survived: 20 micrograms/mouse/day intraperitoneally for 7 days, from 24 hours after inoculation, 10 mice per group
Protocol: In another test, ICR mice (10 mice per group) were inoculated with Ehrlich ascitic tumor cells. Twenty-four hours after the inoculation the dose of 20 micrograms/mouse/day of saframycin Y3 or 20 micrograms/mouse/day of saframycin Yd-1 was administered intraperitoneally. The administration was continued for 7 days. […] When 5 micrograms/mouse/day of saframycin Y3 or 4 micrograms/mouse/day of Yd-1 were administered, 60-70% of the mice survived for 20 days or more.

[8] = system: Staphylococcus aureus 209 P; assay: Antibacterial spectra in vitro, MIC on agar plates; type: cell-based; settings: IFM No. 2014, nutrient agar, 37° C., 24 hours
mouse leukaemia L 1210 = assay: Cytotoxic effect in cell cultures of mouse leukaemia L 1210; type: cell-based; settings: L1210, read-out: ED50 (cytotoxic effect)
Klebsiella pneumoniae = assay: Antibacterial spectra in vitro, MIC on agar plates; type: cell-based; settings: IFM No. 3008, nutrient agar, 37° C., 24 hours
Staphylococcus citreus = assay: Antibacterial spectra in vitro, MIC on agar plates; type: cell-based; settings: IFM No. 2025, nutrient agar, 37° C., 24 hours
Salmonella typhimurium = assay: Antibacterial spectra in vitro, MIC on agar plates; type: cell-based; settings: Salmonella enterica, IFM No. 3023, nutrient agar, 37° C., 24 hours
Streptococcus salivarius = assay: Antibacterial spectra in vitro, MIC on agar plates; type: cell-based; settings: IFM No. 2010, glucose (0.5%) agar, 37° C., 24 hours
Mycobacterium avium = assay: Antibacterial spectra in vitro, MIC on agar plates; type: cell-based; settings: IFM No. 2054, glucose (0.5%) agar, 37° C., 24 hours
Lewis lung cancer [9] = assay: Effect against Lewis lung cancer according to guidelines of the USA Cancer Institute; type: in vivo; settings: 20 micrograms/mouse/day intraperitoneally for 10 days
Protocol: (§4) A physiological sodium chloride solution was administered intraperitoneally to the control group while saframycin Yd-1 was given at a dose of 40 micrograms/mouse/day for 10 days i.p. to the group to be treated. Seven days after the last administration, the mice were sacrificed and the spread of metastasis in the lungs was compared. […] In anther experiment, the effect against Lewis lung cancer was evaluated according to the guidelines of the USA Cancer Institute (R. L. Geran et al. Cancer Chemotherapy Reports, Part 3, Vol. 3, No. 2 (1972)).

Lewis lung cancer [10] = assay: Effect against metastasis of Lewis lung cancer (foot pad inoculation, leg amputation); type: in vivo, BDF1 mice; settings: 40 micrograms/mouse/day for 10 days i.p.; seven days after last administration; control: abundant metastasis
Protocol: In another test, the effect of saframycin Yd-1 against metastasis of Lewis lung cancer was determined in the following manner:
The foot pads of the left hind legs of BDF1 mice having a body weight of 20 g were subcutaneously inoculated with 1.5×10^5 Lewis lung cancer cells. After seven days the legs were amputated.
as §4

Structure (SMILES)	MIC (Saccharomyces cerevisiae)	MIC (Shigella dysenteria)	MIC (Rhodotorula glutinus)	MIC (Nocardia asteroides)	MIC (Sarcina lutea)	survival effect compared with critical level of effectiveness prescribed by the research institute (mouse leukemia L 1210)	survival effect [T/C×100] (mouse leukemia L 1210)	MIC (Candida albicans 7N)	MIC (Streptococcus faecalis)	MIC [1]	MIC (Escherichia coli F1)	MIC (Mycobacterium sp. 607)	MIC [2]	MIC (Pseudomonas aeruginosa)	MIC [3]	MIC (Staphylococcus albus)	MIC (Serratia marcescens)	MIC (Aspergillus niger)	MIC (Penicillium expansum)	MIC (Corynebacterium xeriosis)	further results
COC1=C(C)C(=O)C2=C(C1=O)C1C3CC4=C(C(=O)C(OC)=C(C)C4=O)C(CNC(=O)C(C)N)N3C(C#N)C(C2)N1C (stereo not drawn) [Saframycin Y3]	> 100 µg/mL	10 µg/mL (≈ 17.7 µM)	> 100 µg/mL	50 µg/mL (≈ 88.7 µM)	1 µg/mL (≈ 1.77 µM)	exceed the critical level of effectiveness	130%	> 100 µg/mL	10 µg/mL (≈ 17.7 µM)	0.1 µg/mL (≈ 0.177 µM)	50 µg/mL (≈ 88.7 µM)	> 100 µg/mL	< 0.001 µg/mL	> 100 µg/mL	< 0.001 µg/mL	1 µg/mL (≈ 1.77 µM)	50 µg/mL (≈ 88.7 µM)	> 100 µg/mL	> 100 µg/mL	1 µg/mL (≈ 1.77 µM)	MIC [4]: 10 µg/mL (≈ 17.7 µM); MIC ([5]; IFM No. 2006, glucose (0.5%) agar, 37° C., 24 hours, read-out: MIC): 0.1 µg/mL (≈ 0.177 µM); MIC (Bacillus cereus): 50 µg/mL (≈ 88.7 µM); MIC [6]: > 100 µg/mL; MIC (Mycobacterium phlei): 50 µg/mL (≈ 88.7 µM); MIC (Brucella abortus): 1 µg/mL (≈ 1.77 µM); MIC (Aspergillus oryzae): > 100 µg/mL; mice survived for 20 days or more ([7]; 5 micrograms/mouse/day): 60-70%; mice survived [7]: all mice survived; MIC [8]: 1 µg/mL (≈ 1.77 µM); IC50 (mouse leukaemia L 1210): 0.0016 µg/mL (≈ 0.00284 µM); MIC (Klebsiella pneumoniae): 10 µg/mL (≈ 17.7 µM); MIC (Staphylococcus citreus): 0.1 µg/mL (≈ 0.177 µM); MIC (Salmonella typhimurium): 50 µg/mL (≈ 88.7 µM); MIC (Streptococcus salivarius): 50 µg/mL (≈ 88.7 µM); MIC (Mycobacterium avium): 50 µg/mL (≈ 88.7 µM)
CCC(N)C(=O)NCC1C2=C(CC3C4C5=C(CC(C(C#N)N13)N4C)C(=O)C(C)=C(OC)C5=O)C(=O)C(C)=C(OC)C2=O (stereo not drawn) [Saframycin Yd-1]	> 100 µg/mL	10 µg/mL (≈ 17.3 µM)	> 100 µg/mL	1 µg/mL (≈ 1.73 µM)	1 µg/mL (≈ 1.73 µM)	exceed the critical level of effectiveness	140%	> 100 µg/mL	10 µg/mL (≈ 17.3 µM)	1 µg/mL (≈ 1.73 µM)	50 µg/mL (≈ 86.6 µM)	> 100 µg/mL	< 0.001 µg/mL	> 100 µg/mL	< 0.001 µg/mL	10 µg/mL (≈ 17.3 µM)	50 µg/mL (≈ 86.6 µM)	> 100 µg/mL	> 100 µg/mL	1 µg/mL (≈ 1.73 µM)	T/C×100 (Lewis lung cancer [9]): ≥ 140%; preventing effect against cancer metastasis as compared to saframycin A (Lewis lung cancer [9]): higher preventing effect; spread of metastasis in the lungs (Lewis lung cancer [10]): metastasis was scarcely observed; MIC [4]: 1 µg/mL (≈ 1.73 µM); MIC ([5]; 24 h): 0.01 µg/mL (≈ 0.0173 µM); MIC (Bacillus cereus): 50 µg/mL (≈ 86.6 µM); MIC [6]: > 100 µg/mL; MIC (Mycobacterium phlei): 50 µg/mL (≈ 86.6 µM); MIC (Brucella abortus): 1 µg/mL (≈ 1.73 µM); MIC (Aspergillus oryzae): > 100 µg/mL; mice survived for 20 days or more ([7]; 4 micrograms/mouse/day): 60-70%; mice survived [7]: all mice survived; MIC [8]: 1 µg/mL (≈ 1.73 µM); IC50 (mouse leukaemia L 1210): 0.002 µg/mL (≈ 0.00346 µM); MIC (Klebsiella pneumoniae): 10 µg/mL (≈ 17.3 µM); MIC (Staphylococcus citreus): 0.1 µg/mL (≈ 0.173 µM); MIC (Salmonella typhimurium): 50 µg/mL (≈ 86.6 µM); MIC (Streptococcus salivarius): 50 µg/mL (≈ 86.6 µM); MIC (Mycobacterium avium): 50 µg/mL (≈ 86.6 µM)
